Reference: ChEMBL document CHEMBL5726598, “Compounds, compositions and methods” (2017)

Biological target: T1, Receptor-interacting serine/threonine-protein kinase 1 (Homo sapiens, UniProt Q13546)
T1 sequence (Q13546 whole entry): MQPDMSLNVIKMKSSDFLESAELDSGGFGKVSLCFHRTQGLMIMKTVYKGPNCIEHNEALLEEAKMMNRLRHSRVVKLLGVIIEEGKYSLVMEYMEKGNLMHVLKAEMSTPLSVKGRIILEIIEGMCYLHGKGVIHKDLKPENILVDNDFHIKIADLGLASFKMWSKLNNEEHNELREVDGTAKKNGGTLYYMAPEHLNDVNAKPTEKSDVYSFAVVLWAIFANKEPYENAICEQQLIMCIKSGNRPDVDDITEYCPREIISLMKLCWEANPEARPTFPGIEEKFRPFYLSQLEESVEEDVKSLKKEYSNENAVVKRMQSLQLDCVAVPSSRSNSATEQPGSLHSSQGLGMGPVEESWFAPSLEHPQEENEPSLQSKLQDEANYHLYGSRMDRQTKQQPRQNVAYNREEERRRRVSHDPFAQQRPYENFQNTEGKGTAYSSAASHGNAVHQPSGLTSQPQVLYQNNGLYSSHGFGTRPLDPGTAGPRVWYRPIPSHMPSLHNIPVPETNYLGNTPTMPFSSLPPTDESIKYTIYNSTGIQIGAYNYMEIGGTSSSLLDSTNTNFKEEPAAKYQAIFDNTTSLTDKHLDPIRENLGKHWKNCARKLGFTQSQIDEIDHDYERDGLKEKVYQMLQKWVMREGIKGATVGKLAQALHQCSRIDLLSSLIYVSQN
Experiment: For negative control the enzyme addition was replaced by assay buffer only.

SMILES | IC50 [nM]
CN1C(=O)[C@H](NC(=O)c2cc(Oc3ccc(F)cc3F)ccn2)CCc2cccnc21 | > 3000
CN1C(=O)[C@@H](NC(=O)c2cc(C3(c4ccccc4)CC3)on2)COc2cnccc21 | 0.1 to 1000
CN1C(=O)[C@@H](NC(=O)c2nn(Cc3ccccc3C#N)cc2F)COc2cccnc21 | 0.1 to 1000
